From US20110046378A1, “Novel Imaging Agents for Detecting Neurological Dysfunction” (SIEMENS MEDICAL SOLUTIONS USA, INC., priority 2008, published 2011)
Where two headings read alike, the source gives them in different places.

Tests used:
[1] = test system: Amyloid (AD patient's brain slice); experiment: Amyloid autoradiography staining of AD patient's brain slices, grey/white matter binding with wash protocols; set-up: species or system human; details: for Grey/white matter binding ratio using mild wash conditions: 30%/40%/20% EtOH:water; for order of (non-specific) white matter binding: AD brain slices; for amyloid autoradiography staining (ex vivo), qualitative: AD patient's brain / normal brain; for grey to white matter binding ratio: human AD brain slices, EtOH:water washes
Experimental: (§1) Ex Vivo Competition Assay Using Amyloid (AD patient's brain slice) Autoradiography Staining
A study was conducted to examine the grey to white matter binding ratios for 4 different tracers: CB-001, CB-003, FDDNP and F-PiB (FIG. 7 and FIG. 8). […] After the human brain slices from AD patients were incubated with a given tracer for 30 min, the slices were washed with various EtOH:water solutions in an attempt to optimize the grey-to white matter ratios (FIG. 9). The results were surprising and unexpected in view of previous work performed by other researchers. CB-001 has a slightly higher c Log P than FDDNP (3.8 vs 3.4) and would be expected to have poorer washout than FDDNP based on these values. […] More specifically, the white matter binding of FDDNP is several shades darker than CB-001's white matter binding, indicating low non-specific binding of CB-001.

[2] = target: T1, Amyloid (AD patient's brain slice) (Homo sapiens, UniProt P05067); experiment: IC50 determination with [18F]-PiB by ex vivo competition assay using autoradiography staining; assay type: binding; details: for blocking of [18F]-PiB tissue binding, qualitative: human AD brains
T1 construct: The brain slices were 20 um thick
T1 sequence (P05067 672-711 limits assumed): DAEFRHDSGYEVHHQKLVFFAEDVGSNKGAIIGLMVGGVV
Description: as §1

[3] = target: Aβ42 insoluble aggregates (Homo sapiens, UniProt P05067); experiment: Surface plasmon resonance (Biacore) assay, Aβ42 insoluble aggregates; details: SPR; read-out: binding to insoluble aggregates
Aβ42 insoluble aggregates, sequence (P05067 672-713 limits assumed): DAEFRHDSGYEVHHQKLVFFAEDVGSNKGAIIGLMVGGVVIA

Aβ42 soluble aggregates = Aβ42 soluble aggregates (Homo sapiens, UniProt P05067); experiment: Surface plasmon resonance (Biacore) assay, Aβ42 soluble aggregates; details: SPR; read-out: binding to soluble aggregates
Aβ42 soluble aggregates, sequence (P05067 672-713 limits assumed): as above

[4] = MicroPET imaging in WT and App mice; assay type: in vivo; details: for brain clearance / washout rate: WT and App mice brain, compared with [18F]PiB
Aβ fibrils = details: read-out: Binding Affinity Ki; cited from earlier work
[5] = MicroPET dynamic scan of rat brain after tail vein injection; assay type: in vivo, white Sprague-Dawley rat; details: 30 min dynamic scan
Experimental: A white Sprague-Dawley rat was injected via tail vein with ˜850 uCi AD-CB-001, formulated in 10% EtOH:water. A dynamic scan was conducted for 30 min on a R4 microPET scanner. The data was reconstructed using 1 min framing.

[6] = test system: Amyloid (AD brain slices); experiment: [18F]-CB001 competition studies on AD brain slices; assay type: binding, human
Aβ 1-42 aggregates = target: T2, Aβ 1-42 aggregates (Homo sapiens, UniProt P05067); details: read-out: Binding Affinity Ki; cited from earlier work
T2 construct: Aβ 1-42 aggregates
T2 sequence (P05067 672-713 limits assumed): as above

[7] = 30 min incubation, PBS, PBS, 20 um AD brain slices
[8] = determination 1, vs [18F]-PiB, read-out: IC50 1
[9] = mean of determinations, vs [18F]-PiB, read-out: Average IC50

With FCCOCCOCCOc1ccc2c(c1)[nH]c1ccccc12 [CB-003, 2-(2-(2-(2-fluoroethoxy)ethoxy)ethoxy)-9H-carbazole] the “Grey/white matter binding ratio using mild wash conditions” value [1, 7] was “Excellent”, the “order of (non-specific) white matter binding” value [1] was “FDDNP>CB001>[18F]-PiB>CB003” and the “amyloid autoradiography staining (ex vivo), qualitative” value (shortened to “amyloid autoradiography staining”) [1] was “amyloid deposits were clearly visible in the grey matter with little white matter uptake”. For the same compound, the “amyloid autoradiography staining” value ([1]; listed as [18F]-CB003) was “clearly distinguishes between Alzheimer's and normal brains”, the “grey to white matter binding ratio” value ([1]; 30 min incubation) was “excellent grey to white matter binding ratios” and the IC50 [2, 8] was 1100 nM. The IC50 ([2]; determination 6, vs [18F]-PiB, read-out: IC50 6) was 900 nM, the IC50 ([2]; determination 13, vs [18F]-PiB, read-out: IC50 13) was 920 nM and the “blocking of [18F]-PiB tissue binding, qualitative” value [2] was “still competes with 18F-PiB for binding sites in human AD brains”. The “blocking of [18F]-PiB tissue binding, qualitative” value ([2]; listed as CB003) was “concentration-dependent blocking of [18F]-PiB tissue binding”, the IC50 [2, 9] was 973 nM and the Kd [3] was 9 nM. For the same compound, the Kd (Aβ42 soluble aggregates) was 262 nM, the “brain clearance / washout rate” value [4] was “faster washout rate than 18F-PiB” and the “brain clearance / washout rate” value ([4]; listed as [18F]-CB003) was “much faster than with [18F]PiB”. The “larger brain/muscle ratio of App mice compared to WT mice” value ([4]; microPET) was “up to 25%”.
For CNc1ccc(-c2nc3ccc(O)cc3s2)cc1 [PiB, reference compound], the Ki (Aβ fibrils) is given as 2.8 nM.
With FCCOc1ccc2c(c1)[nH]c1ccccc12 [CB-001, 2-(2-fluoroethoxy)-9H-carbazole] the “Grey/white matter binding ratio using mild wash conditions” value [1, 7] was “Poor”, the “Grey/white matter binding ratio using harsh FDDNP wash conditions” value ([1]; 30 min incubation, PBS, 70%/90%/70% EtOH:water, PBS, 20 um AD brain slices) was “Excellent” and the “order of (non-specific) white matter binding” value [1] was “FDDNP>CB001>[18F]-PiB>CB003”. The “amyloid autoradiography staining” value [1] was “good amyloid binding and little/no white matter binding”, the “grey to white matter binding ratio” value ([1]; 30 min incubation) was “much better grey to white matter ratio compared to FDDNP” and the IC50 [2, 8] was 1000 nM. For the same compound, the IC50 ([2]; determination 2, vs [18F]-PiB, read-out: IC50 2) was 480 nM, the IC50 [2, 9] was 740 nM and the “brain entry and washout, qualitative” value [5] was “Within minutes, the tracer entered the rat brain and quickly washed out”. The “brain uptake, qualitative” value ([4]; App and WT mice, microPET) was “very good brain uptake”, the “plaque binding of the tracer in competition studies” value ([6]; AD brain slices) was “reversible plaque binding and competition with PiB, and little/no white matter binding” and the “blocking of [18F]-CB001 staining” value ([6]; cold competitor, increasing concentrations) was “PiB appears to block tracer binding with the same strength as cold CB001”.
For CNc1ccc(/C=C2\Oc3ccc([125I])cc3C2=O)cc1 [Aurones], the Ki (Aβ 1-42 aggregates) is listed as 1.24 nM.
